The values that follow come from patent publication US10865194B2, “Therapeutically active bicyclic-sulphonamides and pharmaceutical compositions” (FONDAZIONE ISTITUTO ITALIANO DI TECNOLOGIA, priority 2017, dated 2020).

The test concerns the target T1, human NAAA (Homo sapiens, UniProt Q02083).
T1 construct: expressed in transfected cells; host or cells: HEK-293 (stably transfected, G418 selection); enzyme-enriched lysate
T1 sequence (Q02083 126-359 limits assumed): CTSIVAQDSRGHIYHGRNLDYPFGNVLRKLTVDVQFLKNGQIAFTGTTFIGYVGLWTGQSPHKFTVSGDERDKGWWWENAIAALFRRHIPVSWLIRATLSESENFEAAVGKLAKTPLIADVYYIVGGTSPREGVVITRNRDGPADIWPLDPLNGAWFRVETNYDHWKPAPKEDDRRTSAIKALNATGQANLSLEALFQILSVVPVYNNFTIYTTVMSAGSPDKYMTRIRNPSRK
T1 sequence (Q02083 29-125 limits assumed): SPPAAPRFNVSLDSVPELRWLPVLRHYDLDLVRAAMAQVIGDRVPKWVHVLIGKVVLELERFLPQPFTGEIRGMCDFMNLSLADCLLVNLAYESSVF
The test is described as follows: In vitro human NAAA fluorogenic assay. It counts as biochemical. The settings on record: enzyme-enriched lysate of HEK-293 cells stably transfected with human NAAA; read-out: Activity h-NAAA Fluorogenic assay. As for the experimental part: Human recombinant proteins were obtained from HEK-293 stable overexpressing NAAA cell lines. Cells were grown in Dulbecco's modified Eagle medium (DMEM) containing 10% FBS, 1% penicillin/streptomycin, 1% glutamine and 500 μg/mL G418. To obtain membrane preparation cells were scraped off with cold phosphate-buffered saline (PBS) and collected by centrifugation (300×g, 7 min, 4° C.). Cell pellet were stored at −80° C. until protein preparation.
In Vitro Human NAAA Assay
Preparation of Enzyme-Enriched Lysate (h-NAAA).
HEK-293 cells stably transfected with the human NAAA coding sequences were used as enzyme source. Cell pellets were suspended in 20 mM Tris HCl (pH 7.4) with 0.32 M sucrose, sonicated and centrifuged at 800×g for 30 min at 4° C. Supernatants were then ultracentrifuged at 12,000×g for 30 min at 4° C. Pellets were re-suspended in PBS buffer (pH 7.4) and subjected to three freeze-thaw cycles at −80° C. The suspension was finally ultracentrifuged at 105,000×g for 1 h at 4° C., supematants were collected, protein concentration was measured and samples aliquoted and stored at −80° C. until use.
The results are summarized in Table 3 as follows, wherein +: IC50>2 μM; ++: 1.0 μM<IC50<2 μM; +++: IC50<1 μM: […]

pIC50: −log10 of the molar value.

Take `Cc1n[nH]c(C)c1S(=O)(=O)N1C2CCC1CC(Oc1ccc(CO)cc1)C2` [Example 31, (1R,3r,5S)-3-(4-Hydroxymethyl-phenoxy)-8-[(3,5-dimethyl-1H-pyrazol-4-yl)sulfonyl]-8-azabicyclo[3.2.1]octane]: the pIC50 is over 6.00. For `CCN(CC)Cc1ccc(OC2CC3CCC(C2)N3S(=O)(=O)c2c(C)n[nH]c2C)cc1` [Example 32, (1R,3r,5S)-3-[4-Diethylaminomethyl-phenoxy]-8-[(3,5-dimethyl-1H-pyrazol-4-yl)sulfonyl]-8-azabicyclo[3.2.1]octane], the pIC50 was under 5.70. With `Cc1n[nH]c(C)c1S(=O)(=O)N1C2CCC1CC(Oc1ccc(CCC(C)C)cc1)C2` [Example 33, (1R,3r,5S)-3-[4-Isopentyl-phenoxy]-8-[(3,5-dimethyl-1H-pyrazol-4-yl)sulfonyl]-8-azabicyclo[3.2.1]octane] the figure was over 6.00; with `Cc1n[nH]c(C)c1S(=O)(=O)N1C2CCC1CC(Oc1cnc3ccccc3n1)C2` [Example 34, (1R,3r,5S)-8-[(3,5-Dimethyl-1H-pyrazol-4-yl)sulfonyl]-3-(2-quinoxalyloxy)-8-azabicyclo[3.2.1]octane], under 5.70; with `CCOCc1ccc(OC2CC3CCC(C2)N3S(=O)(=O)c2c(C)n[nH]c2C)cc1` [Example 35, (1R,3r,5S)-3-(4-Ethoxymethyl-phenoxy)-8-[(3,5-dimethyl-1H-pyrazol-4-yl)sulfonyl]-8-azabicyclo[3.2.1]octane], over 6.00. With `Cc1cnc(OC2CC3CCC(C2)N3S(=O)(=O)c2c(C)n[nH]c2C)cn1` [Example 36, (1R,3r,5S)-8-[(3,5-Dimethyl-1H-pyrazol-4-yl)sulfonyl]-3-(5-methylpyrazin-2-yl)oxy-8-azabicyclo[3.2.1]octane] the figure was over 6.00.

Take `Cc1n[nH]c(C)c1S(=O)(=O)N1C2CCC1CC(Oc1cccnn1)C2` [Example 37, (1R,3r,5S)-8-[(3,5-Dimethyl-1H-pyrazol-4-yl)sulfonyl]-3-pyridazin-3-yloxy-8-azabicyclo[3.2.1]octane]: the pIC50 was under 5.70.

For `Cc1ccc2oc(OC3CC4CCC(C3)N4S(=O)(=O)c3c(C)n[nH]c3C)nc2c1` [Example 38, (1R,3r,5S)-8-[(3,5-Dimethyl-1H-pyrazol-4-yl)sulfonyl]-3-(2-(5-methyl)-benzoxazoloxy)-8-azabicyclo[3.2.1]octane], the pIC50 was over 6.00. For the compound `Cc1n[nH]c(C)c1S(=O)(=O)N1C2CCC1CC(Oc1ccc(Cl)cc1)C2` [Example 39, (1R,3r,5S)-3-(4-Chloro-phenoxy)-8-[(3,5-dimethyl-1H-pyrazol-4-yl)sulfonyl]-8-azabicyclo[3.2.1]octane], the pIC50 was over 6.00. Take `CCOCc1cnc(OC2CC3CCC(C2)N3S(=O)(=O)c2c(C)n[nH]c2C)cn1` [Example 41, (1R,3r,5S)-8-[(3,5-Dimethyl-1H-pyrazol-4-yl)sulfonyl]-3-[5-(ethoxymethyl)pyrazin-2-yl]oxy-8-azabicyclo[3.2.1]octane]: the pIC50 was over 6.00. On to `Cc1n[nH]c(C)c1S(=O)(=O)N1C2CCC1CC(Oc1ccc(F)cc1)C2` [Example 42, (1R,3r,5S)-3-(4-Fluoro-phenoxy)-8-[(3,5-dimethyl-1H-pyrazol-4-yl)sulfonyl]-8-azabicyclo[3.2.1]octane], for which the pIC50 is over 6.00. As to `Cc1n[nH]c(C)c1S(=O)(=O)N1[C@@H]2CC[C@H]1C[C@H](Oc1cccnn1)C2` [Example 43, (1R,3s,5S)-8-[(3,5-Dimethyl-1H-pyrazol-4-yl)sulfonyl]-3-pyridazin-3-yloxy-8-azabicyclo[3.2.1]octane], the pIC50 is under 5.70. On to `Cc1n[nH]c(C)c1S(=O)(=O)N1C2CCCC1CC(Oc1cnccn1)C2` [Example 44, (1R,3r,5S)-9-[(3,5-Dimethyl-1H-pyrazol-4-yl)sulfonyl]-3-(pyrazin-2-yloxy)-9-azabicyclo[3.3.1]nonane], for which the pIC50 is over 6.00. As to `Cc1n[nH]c(C)c1S(=O)(=O)N1C2CCCC1CC(Oc1cnccn1)C2` [Example 45, (1R,3s,5S)-9-[(3,5-Dimethyl-1H-pyrazol-4-yl)sulfonyl]-3-(pyrazin-2-yloxy)-9-azabicyclo[3.3.1]nonane], the pIC50 was under 5.70.

In the case of `Cc1n[nH]c(C)c1S(=O)(=O)N1C2COCC1CC(Oc1cnccn1)C2` [Example 46, (1R,3s,5S)-9-[(3,5-Dimethyl-1H-pyrazol-4-yl)sulfonyl]-7-pyrazin-2-yloxy-3-oxa-9-azabicyclo[3.3.1]nonane], the pIC50 is under 5.70. With `Cc1n[nH]c(C)c1S(=O)(=O)N1C2COCC1CC(Oc1cnccn1)C2` [Example 47, (1R,3r,5S)-9-[(3,5-Dimethyl-1H-pyrazol-4-yl)sulfonyl]-7-pyrazin-2-yloxy-3-oxa-9-azabicyclo[3.3.1]nonane] the figure was under 5.70; with `Cc1n[nH]c(C)c1S(=O)(=O)N1C[C@H]2COC[C@@H](C1)[C@H]2Oc1cnccn1` [Example 48, (1R,5S,9r)-7-((3,5-Dimethyl-1H-pyrazol-4-yl)sulfonyl)-9-(pyrazin-2-yloxy)-3-oxa-7-azabicyclo[3.3.1]nonane], under 5.70; with `Cc1n[nH]c(C)c1S(=O)(=O)N1C[C@H]2COC[C@@H](C1)C2Oc1cnccn1` (stereo partly drawn) [Example 49, (1R,5S,9s)-7-((3,5-Dimethyl-1H-pyrazol-4-yl)sulfonyl)-9-(pyrazin-2-yloxy)-3-oxa-7-azabicyclo[3.3.1]nonane], under 5.70. With `Cc1n[nH]c(C)c1S(=O)(=O)N1C[C@H]2CC[C@@H](C1)C2Oc1cnccn1` (stereo partly drawn) [Example 50, (1R,5S,8r)-3-((3,5-Dimethyl-1H-pyrazol-4-yl)sulfonyl)-8-(pyrazin-2-yloxy)-3-azabicyclo[3.2.1]octane] the figure was under 5.70; with `Cc1ccc(OC2CC3CCC(C2)N3S(=O)(=O)c2c(C)n[nH]c2C)nn1` [Example 53, (1R,3r,5S)-8-[(3,5-Dimethyl-1H-pyrazol-4-yl)sulfonyl]-3-(6-methylpyridazin-3-yl)oxy-8-azabicyclo[3.2.1]octane], under 5.70.

With “(1R,3r,5S)-3-(4-Hexylphenoxy)-8-[(3,5-dimethyl-1H-pyrazol-4-yl)sulfonyl]-8-azabicyclo[3.2.1]octane [Example 19]”, the pIC50 is over 6.00.
